# Reference: US20120115877A1, “Facially Amphiphilic Compounds, Compositions, And Uses Thereof In Treating Cancer” (POLYMEDIX, INC., priority 2010, published 2012)
# What was measured:
# Format in all cases: cell-based, human
# NCI-H460 = test: NCI-60 screen, Non-Small Cell Lung Cancer; conditions: 10 μM
# Protocol: (§1) Several compounds were tested at single concentrations (10 μM) against 59 different human tumor cell lines, representing leukemia, melanoma and cancers of the lung, colon, brain, ovary, breast, prostate, and kidney (see, Table 3). The human tumor cell lines of the cancer screening panel were grown in RPMI 1640 medium containing 5% fetal bovine serum and 2 mM L-glutamine. For a typical screening experiment, cells were inoculated into 96 well microtiter plates in 100 μL at plating densities ranging from 5,000 to 40,000 cells/well depending on the doubling time of individual cell lines. After cell inoculation, the microtiter plates were incubated at 37° C., 5% CO2, 95% air and 100% relative humidity for 24 hours prior to addition of the compounds.
# (§2) After 24 hours, two plates of each cell line were fixed in situ with TCA, to represent a measurement of the cell population for each cell line at the time of drug addition (Tz). Compounds were solubilized in dimethyl sulfoxide at 400-fold the desired final maximum test concentration and stored frozen prior to use. At the time of drug addition, an aliquot of frozen concentrate was thawed and diluted to twice the desired final maximum test concentration with complete medium containing 50 μg/ml gentamicin. Additional four, 10-fold or ½ log serial dilutions were made to provide a total of five compound concentrations plus control. Aliquots of 100 μl of these different drug dilutions were added to the appropriate microtiter wells already containing 100 μl of medium, resulting in the required final compound concentrations.
# (§3) Following drug addition, the plates were incubated for an additional 48 hours at 37° C., 5% CO2, 95% air, and 100% relative humidity. For adherent cells, the assay was terminated by the addition of cold TCA. Cells were fixed in situ by the gentle addition of 50 μl of cold 50% (w/v) TCA (final concentration, 10% TCA) and incubated for 60 minutes at 4° C. The supernatant was discarded, and the plates were washed five times with tap water and air dried. Sulforhodamine B (SRB) solution (100 μl) at 0.4% (w/v) in 1% acetic acid was added to each well, and plates were incubated for 10 minutes at room temperature. After staining, unbound dye was removed by washing five times with 1% acetic acid and the plates were air dried. Bound stain was subsequently solubilized with 10 mM trizma base, and the absorbance was read on an automated plate reader at a wavelength of 515 nm. For suspension cells, the methodology was the same except that the assay was terminated by fixing settled cells at the bottom of the wells by gently adding 50 μl of 80% TCA (final concentration, 16% TCA). Using the seven absorbance measurements (time zero, (Tz), control growth, (C), and test growth in the presence of drug at the five concentration levels (Ti)), the percentage growth was calculated at each of the compound concentrations levels. Percentage growth inhibition was calculated as:
# (§4) [(Ti−Tz)/(C−Tz)]×100 for concentrations for which Ti>/=Tz
# (§5) [(Ti−Tz)/Tz]×100 for concentrations for which Ti<Tz.
# (§6) Three dose response parameters were calculated for each compound. Growth inhibition of 50% (GI50) was calculated from [(Ti−Tz)/(C−Tz)]×100=50, which is the compound concentration resulting in a 50% reduction in the net protein increase (as measured by SRB staining) in control cells during the compound incubation. The compound concentration resulting in total growth inhibition (TGI) was calculated from Ti=Tz. The LC50 (concentration of compound resulting in a 50% reduction in the measured protein at the end of the compound treatment as compared to that at the beginning) indicating a net loss of cells following treatment was calculated from [(Ti−Tz)/Tz]×100=−50. Values were calculated for each of these three parameters if the level of activity was reached; however, if the effect was not reached or was exceeded, the value for that parameter was expressed as greater or less than the maximum or minimum concentration tested.
# NCI-H522 = test: NCI-60 screen, Non-Small Cell Lung Cancer; conditions: 10 μM
# Protocol: as §1, §2, §3, §4, §5, §6
# HOP-62 = test: NCI-60 screen, Non-Small Cell Lung Cancer; conditions: 10 μM
# Protocol: as §1, §2, §3, §4, §5, §6
# EKVX = test: NCI-60 screen, Non-Small Cell Lung Cancer; conditions: 10 μM
# Protocol: as §1, §2, §3, §4, §5, §6
# HOP-92 = test: NCI-60 screen, Non-Small Cell Lung Cancer; conditions: 10 μM
# Protocol: as §1, §2, §3, §4, §5, §6
# A549/ATCC = test: NCI-60 screen, Non-Small Cell Lung Cancer; conditions: 10 μM
# Protocol: as §1, §2, §3, §4, §5, §6
# NCI-H226 = test: NCI-60 screen, Non-Small Cell Lung Cancer; conditions: 10 μM
# Protocol: as §1, §2, §3, §4, §5, §6
# NCI-H322M = test: NCI-60 screen, Non-Small Cell Lung Cancer; conditions: 10 μM
# Protocol: as §1, §2, §3, §4, §5, §6
# NCI-H23 = test: NCI-60 screen, Non-Small Cell Lung Cancer; conditions: 10 μM
# Protocol: as §1, §2, §3, §4, §5, §6
# CCRF-CEM = test: NCI-60 screen, Leukemia; conditions: 10 μM
# Protocol: as §1, §2, §3, §4, §5, §6
# MDA-MB-31/ATCC = test: NCI-60 screen, Breast Cancer; conditions: 10 μM, MDA-MB-231/ATCC
# Outline: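 Single-dose 10 μM screen on human tumour lines in RPMI 1640 with 5% FBS, 48 h compound exposure at 37 °C after 24 h pre-plating. Read-out is SRB protein stain (515 nm) after TCA fixation. Percentage growth is calculated relative to time-zero and untreated controls; negative values indicate cell kill.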
# COLO 205 = test: NCI-60 screen, Colon Cancer; conditions: 10 μM
# Protocol: as §1, §2, §3, §4, §5, §6
# KM12 = test: NCI-60 screen, Colon Cancer; conditions: 10 μM
# Protocol: as §1, §2, §3, §4, §5, §6
# HCC-2998 = test: NCI-60 screen, Colon Cancer; conditions: 10 μM
# Protocol: as §1, §2, §3, §4, §5, §6
# HT29 = test: NCI-60 screen, Colon Cancer; conditions: 10 μM
# Protocol: as §1, §2, §3, §4, §5, §6
# HCT-116 = test: NCI-60 screen, Colon Cancer; conditions: 10 μM
# Protocol: as §1, §2, §3, §4, §5, §6
# SW-620 = test: NCI-60 screen, Colon Cancer; conditions: 10 μM
# Protocol: as §1, §2, §3, §4, §5, §6
# HCT-15 = test: NCI-60 screen, Colon Cancer; conditions: 10 μM
# Protocol: as §1, §2, §3, §4, §5, §6
# DU-145 = test: NCI-60 screen, Prostate Cancer; conditions: 10 μM
# Protocol: as §1, §2, §3, §4, §5, §6
# PC-3 = test: NCI-60 screen, Prostate Cancer; conditions: 10 μM
# Protocol: as §1, §2, §3, §4, §5, §6
# U251 = test: NCI-60 screen, CNS Cancer; conditions: 10 μM
# Protocol: as §1, §2, §3, §4, §5, §6
# SNB-75 = test: NCI-60 screen, CNS Cancer; conditions: 10 μM
# Protocol: as §1, §2, §3, §4, §5, §6
# SF-295 = test: NCI-60 screen, CNS Cancer; conditions: 10 μM
# Protocol: as §1, §2, §3, §4, §5, §6
# SF-539 = test: NCI-60 screen, CNS Cancer; conditions: 10 μM
# Protocol: as §1, §2, §3, §4, §5, §6
# SNB-19 = test: NCI-60 screen, CNS Cancer; conditions: 10 μM
# Protocol: as §1, §2, §3, §4, §5, §6
# SF-268 = test: NCI-60 screen, CNS Cancer; conditions: 10 μM
# Protocol: as §1, §2, §3, §4, §5, §6
smiles,measurement,setting,value
NCCCc1cccc(-c2ccc3sc4ccc(-c5cccc(CCCN)c5)cc4c3c2)c1 [Compound D],Percent Growth,NCI-H460,69.57%
same,Percent Growth,NCI-H522,10.75%
same,Percent Growth,HOP-62,90.64%
same,Percent Growth,EKVX,98.18%
same,Percent Growth,HOP-92,78.26%
same,Percent Growth,A549/ATCC,72.71%
same,Percent Growth,NCI-H226,110.1%
same,Percent Growth,NCI-H322M,107%
same,Percent Growth,NCI-H23,100.6%
same,Percent Growth,CCRF-CEM,5.12%
same,Percent Growth,MDA-MB-31/ATCC,60.18%
same,Percent Growth,COLO 205,31.52%
same,Percent Growth,KM12,42.09%
same,Percent Growth,HCC-2998,93.27%
same,Percent Growth,HT29,21.31%
same,Percent Growth,HCT-116,0.5127%
same,Percent Growth,SW-620,15.48%
same,Percent Growth,HCT-15,88.15%
same,Percent Growth,DU-145,55.35%
same,Percent Growth,PC-3,73.6%
same,Percent Growth,U251,59.7%
same,Percent Growth,SNB-75,71.15%
same,Percent Growth,SF-295,87.17%
same,Percent Growth,SF-539,98.34%
same,Percent Growth,SNB-19,79.89%
same,Percent Growth,SF-268,73.4%
